Test results published in patent publication US10532053B2, “Histone deacetylase inhibitor, and preparation method and use thereof” (GUANGDONG ZHONGSHENG PHARMACEUTICAL CO., LTD, priority 2015, dated 2020).
Read-outs that look alike come from different tables or passages of the source.

Experiments:
HDAC1 = molecular target: T1, HDAC1 (Homo sapiens, UniProt Q13547); assay: HDAC inhibitory activity, fluorescence-coupled acetylated peptide substrate assay (Lys-Ac-AMC); format: biochemical
T1 construct: purchased BPS Bioscience
Method: (§2) The HDAC inhibitory activity was determined by fluorescence-coupled acetylated peptide substrate assay (Lys-Ac-AMC). HDAC1 protein was purchased from BPS Bioscience, and the reaction buffer system was a modified tris(hydroxymethyl)aminomethane buffer (pH 7.0). The small molecule compounds of the present invention were prepared by being dissolved in 100% DMSO. HDAC was prepared in a buffer at a certain concentration as an enzyme solution; trypsin and fluorescent group 4-amino-7-coumarin coupled-acetylated peptide (Ac-peptide) substrate were prepared in a buffer at a certain concentration as a substrate solution. The compounds were added into the reaction wells in a 384-well plate at a designed concentration of 10 μM, 1 μM, 0.5 μM, 0.1 μM, 0.05 μM, 0.01 μM, 0.005 μM, 0.001 μM, and 0.00005 μM, respectively, and then 15 μl of the HDAC solution was added into the reaction wells (15 μl of blank buffer to the control well). […] The results were analyzed by GraphPad Prism software and IC50 values were calculated according to the formula: Y=Background Data+(Top Data−Background Data)/(1+10^((Log IC50−X) a curve slope)), where Y: the inhibition rate (%) and X: the concentration of the compound.

HDAC6 = molecular target: T2, HDAC6 (Homo sapiens, UniProt Q9UBN7); assay: HDAC inhibitory activity, fluorescence-coupled acetylated peptide substrate assay; format: biochemical; settings: for Selection Ratio HDAC1/6: ratio of IC50 HDAC1 to HDAC6; for Selection Ratio HDAC8/6: ratio of IC50 HDAC8 to HDAC6
T2 sequence (Q9UBN7 1-1215): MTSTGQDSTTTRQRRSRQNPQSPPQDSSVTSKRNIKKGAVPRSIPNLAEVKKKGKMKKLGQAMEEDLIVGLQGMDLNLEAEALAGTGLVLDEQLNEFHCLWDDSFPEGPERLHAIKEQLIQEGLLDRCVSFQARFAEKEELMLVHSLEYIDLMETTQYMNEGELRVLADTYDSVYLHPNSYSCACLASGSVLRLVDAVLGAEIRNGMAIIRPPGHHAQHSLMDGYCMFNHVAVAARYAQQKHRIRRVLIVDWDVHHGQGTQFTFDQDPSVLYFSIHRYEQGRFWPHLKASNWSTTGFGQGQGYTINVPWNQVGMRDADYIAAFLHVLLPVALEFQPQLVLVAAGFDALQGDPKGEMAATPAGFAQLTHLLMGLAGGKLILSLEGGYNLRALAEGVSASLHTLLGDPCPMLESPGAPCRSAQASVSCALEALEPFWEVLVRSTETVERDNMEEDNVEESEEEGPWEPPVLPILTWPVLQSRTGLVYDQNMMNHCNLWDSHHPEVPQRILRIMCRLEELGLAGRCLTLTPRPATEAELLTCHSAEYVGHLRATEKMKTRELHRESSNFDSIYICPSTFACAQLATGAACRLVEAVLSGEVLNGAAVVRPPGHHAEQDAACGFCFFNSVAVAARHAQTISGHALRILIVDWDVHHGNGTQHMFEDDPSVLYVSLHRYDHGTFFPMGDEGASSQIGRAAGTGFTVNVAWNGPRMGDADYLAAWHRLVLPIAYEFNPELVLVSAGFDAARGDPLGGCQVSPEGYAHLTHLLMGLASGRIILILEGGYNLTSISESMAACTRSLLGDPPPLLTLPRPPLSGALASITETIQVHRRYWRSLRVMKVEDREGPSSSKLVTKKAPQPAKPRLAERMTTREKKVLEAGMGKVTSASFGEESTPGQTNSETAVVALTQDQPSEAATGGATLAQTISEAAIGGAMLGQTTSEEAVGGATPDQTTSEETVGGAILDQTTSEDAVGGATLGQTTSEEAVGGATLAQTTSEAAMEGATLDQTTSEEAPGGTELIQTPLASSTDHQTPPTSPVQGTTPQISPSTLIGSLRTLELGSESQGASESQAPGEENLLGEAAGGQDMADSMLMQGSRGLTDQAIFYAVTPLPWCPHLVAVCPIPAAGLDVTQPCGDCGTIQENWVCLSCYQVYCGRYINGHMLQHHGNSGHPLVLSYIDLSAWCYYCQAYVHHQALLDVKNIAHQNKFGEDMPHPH
Method: as §2

[1] = tested on: Human cervical cancer cell Hela; assay: Cell proliferative activity (MTT / cck-8); format: cell-based; settings: incubated for 96 hours, read-out: Half-Inhibitory Concentration IC50 Human cervical cancer cell Hela
Method: (§1) Tumor cell line A375: human melanoma cell; H460: lung adenocarcinoma cell; Hela: human cervical cancer cell; HepG2: human liver cancer cell; and SKOV-3: human ovarian cancer cell, were all purchased from ATCC and cultured to logarithmic phase according to the cultivation protocol recommended by ATCC. The cells in the logarithmic phase were plated onto a 96-well plate at 2000-3000 cells/well; in the case of adherent cells, the cells should be adherent to the wall. […] After that, the cell proliferative activity was determined by MTT assay for the tumor cells representing the solid tumor model and by cck-8 assay for the tumor cells representing the hematologic tumor model.

[2] = tested on: Human liver cancer cell HepG2; assay: Cell proliferative activity (MTT / cck-8); format: cell-based; settings: incubated for 96 hours, read-out: Half-Inhibitory Concentration IC50 Human liver cancer cell HepG2
Method: as §1

[3] = tested on: Human lung cancer cell H460; assay: Cell proliferative activity (MTT / cck-8); format: cell-based; settings: NCI-H460, incubated for 96 hours, read-out: Half-Inhibitory Concentration IC50 Human lung cancer cell H460
Method: as §1

Human melanoma A375 = assay: Cell proliferative activity (MTT / cck-8); format: cell-based; settings: A-375, incubated for 96 hours, read-out: Half-Inhibitory Concentration IC50 Human melanoma A375
Method: as §1

[4] = tested on: Human ovarian cancer cell SKOV-3; assay: Cell proliferative activity (MTT / cck-8); format: cell-based; settings: SK-OV-3, incubated for 96 hours, read-out: Half-Inhibitory Concentration IC50 Human ovarian cancer cell SKOV-3
Method: as §1

HCT116 cells = assay: Therapeutic effect on the colon cancer HCT116 model (intravenous)
HDAC8 = molecular target: T3, HDAC8 (Homo sapiens, UniProt Q9BY41); assay: HDAC inhibitory activity, fluorescence-coupled acetylated peptide substrate assay
T3 sequence (Q9BY41 1-377): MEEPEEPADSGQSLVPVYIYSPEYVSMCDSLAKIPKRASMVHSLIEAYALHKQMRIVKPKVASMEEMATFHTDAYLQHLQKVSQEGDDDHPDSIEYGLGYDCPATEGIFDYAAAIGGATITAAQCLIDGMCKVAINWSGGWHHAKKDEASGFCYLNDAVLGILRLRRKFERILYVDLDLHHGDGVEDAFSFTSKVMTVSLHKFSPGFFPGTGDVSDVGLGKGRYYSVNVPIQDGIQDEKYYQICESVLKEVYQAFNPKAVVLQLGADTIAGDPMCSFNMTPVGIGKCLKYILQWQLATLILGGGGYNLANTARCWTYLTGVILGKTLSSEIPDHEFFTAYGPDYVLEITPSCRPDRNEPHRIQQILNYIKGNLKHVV

T1 sequence (Q13547 whole entry): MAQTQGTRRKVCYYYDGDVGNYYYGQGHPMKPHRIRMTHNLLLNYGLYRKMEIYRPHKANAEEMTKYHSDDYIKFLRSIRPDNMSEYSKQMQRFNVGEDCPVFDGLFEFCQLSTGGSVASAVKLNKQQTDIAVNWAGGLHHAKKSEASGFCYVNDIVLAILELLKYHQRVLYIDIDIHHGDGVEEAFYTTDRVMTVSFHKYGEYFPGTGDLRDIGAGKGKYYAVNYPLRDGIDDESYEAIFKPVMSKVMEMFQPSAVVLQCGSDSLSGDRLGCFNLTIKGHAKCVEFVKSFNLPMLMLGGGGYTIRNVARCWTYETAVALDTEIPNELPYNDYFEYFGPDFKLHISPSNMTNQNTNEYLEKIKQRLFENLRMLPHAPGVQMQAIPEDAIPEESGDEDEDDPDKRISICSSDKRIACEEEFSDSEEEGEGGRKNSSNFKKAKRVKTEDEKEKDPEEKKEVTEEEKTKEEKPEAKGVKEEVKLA

SMILES	IC50 (HDAC1; Table 2) [nM]	IC50 (HDAC1; Table 3) [nM]	IC50 (HDAC6; Table 2) [nM]	IC50 (HDAC6; Table 3) [nM]	Selection Ratio HDAC1/6 (HDAC6)	Selection Ratio HDAC8/6 (HDAC6)	IC50 [1] [nM]	IC50 [2] [nM]	IC50 [3] [nM]	IC50 (Human melanoma A375) [nM]	IC50 [4] [nM]	survival time of mice (HCT116 cells; 50 mg/kg intravenously once every other day, 9 times, vs blank control, P<0.01)	effect prolonging the survival time compared with positive control group (HCT116 cells; 50 mg/kg intravenously, SAHA 50 mg/kg intraperitoneally)	IC50 (HDAC8; IC50 HDAC8, Table 2) [nM]	IC50 (HDAC8; read-out: IC50 HDAC8, Table 3) [nM]	IC50 (HDAC8; IC50 HDAC8, Table 3) [nM]
Cc1nc(N(C)c2ccc(OCCCC(=O)NO)cc2)c2ccccc2n1 [II-2, N-hydroxy-4-(4-(methyl(2-methyl-4-quinazolinyl)amino)phenoxy)butanamide]	10 to 100	84	100 to 1000	196	0.4	7.5	100 to 1000	10 to 100	100 to 1000	100 to 1000	10 to 100	significantly prolonged the survival time of mice	superior to that of the positive control group	> 1000	1460	–
CN(c1ccc(OCc2ccc(C(=O)NO)cc2)cc1)c1ncnc2ccccc12 [II-16, N-hydroxy-4-((4-(methyl(4-quinazolinyl)amino)phenoxy)methyl)benzamide]	100 to 1000	385	< 10	10	38.5	167.6	> 1000	> 1000	> 1000	> 1000	> 1000	–	–	> 1000	–	1680
CN(c1ccc(Oc2ccc(C(=O)NO)cn2)cc1)c1ncnc2ccccc12 [II-18, N-hydroxy-6-(4-(methyl(4-quinazolinyl)amino)phenoxy)nicotinamide]	100 to 1000	437	10 to 100	15	29.1	194.4	100 to 1000	100 to 1000	100 to 1000	100 to 1000	100 to 1000	–	–	> 1000	–	2920
Cc1nc(Nc2ccc(OCCC(=O)NO)cc2)c2ccccc2n1 [II-24, N-hydroxy-3-(4-((2-methyl-4-quinazolinyl)amino)phenoxy)propionamide]	> 1000	–	100 to 1000	–	–	–	> 1000	> 1000	> 1000	> 1000	> 1000	–	–	> 1000	–	–
COc1ccc(N(C)c2nc(C)nc3ccccc23)cc1OCCCCCC(=O)NO [III-4, N-hydroxy-6-(2-methoxy-5-(methyl(2-methyl-4-quinazolinyl)amino)phenoxy)hexanamide]	100 to 1000	–	10 to 100	–	–	–	100 to 1000	100 to 1000	100 to 1000	100 to 1000	100 to 1000	–	–	> 1000	–	–
Cc1nc(N(C)c2cccc(OCC(=O)NO)c2)c2ccccc2n1 [III-12, N-hydroxy-2-(3-(methyl(2-methyl-4-quinazolinyl)amino)phenoxy)acetamide]	100 to 1000	–	10 to 100	–	–	–	100 to 1000	100 to 1000	100 to 1000	> 1000	100 to 1000	–	–	> 1000	–	–
Cc1nc(N(C)c2cccc(OCCCC(=O)NO)c2)c2ccccc2n1 [III-13, N-hydroxy-4-(3-(methyl(2-methyl-4-quinazolinyl)amino)phenoxy)butanamide]	100 to 1000	–	100 to 1000	–	–	–	100 to 1000	10 to 100	100 to 1000	100 to 1000	10 to 100	–	–	> 1000	–	–
Cc1nc(N(C)c2cccc(OCCCCC(=O)NO)c2)c2ccccc2n1 [III-14, N-hydroxy-5-(3-(methyl(2-methyl-4-quinazolinyl)amino)phenoxy)pentanamide]	100 to 1000	–	100 to 1000	–	–	–	10 to 100	10 to 100	100 to 1000	100 to 1000	10 to 100	–	–	> 1000	–	–
Cc1nc(N(C)c2cccc(OCCCCCC(=O)NO)c2)c2ccccc2n1 [III-15, N-hydroxy-6-(3-(methyl(2-methyl-4-quinazolinyl)amino)phenoxy)hexanamide]	10 to 100	–	10 to 100	–	–	–	100 to 1000	100 to 1000	100 to 1000	> 1000	100 to 1000	–	–	> 1000	–	–
CCCN(c1ccc(OC)c(OCCCC(=O)NO)c1)c1nc(C)nc2ccccc12 [IV-2, N-hydroxy-4-(2-methoxy-5-((2-methyl-4-quinazolinyl)(propyl)amino)phenoxy)butanamide]	> 1000	–	> 1000	–	–	–	> 1000	100 to 1000	100 to 1000	100 to 1000	100 to 1000	–	–	> 1000	–	–
CCCCCN(c1ccc(OC)c(OCCCC(=O)NO)c1)c1nc(C)nc2ccccc12 [IV-4, N-hydroxy-4-(2-methoxy-5-((2-methyl-4-quinazolinyl)(pentyl)amino)phenoxy)butanamide]	10 to 100	–	10 to 100	–	–	–	100 to 1000	100 to 1000	> 1000	100 to 1000	> 1000	–	–	> 1000	–	–
